Experiments:
Experiment in all cases: MIC, broth microdilution (CLSI), substance alone or ATB combined with compound at 4 or 8 μg/mL
Assay type in all cases: cell-based, A. baumannii
ABA UFR157 = test system: ABA UFR157
Protocol: (§1) Compounds of the present invention were assessed against genotyped bacterial strains alone or in combination with an antibacterial. In the assays, MICs of said compounds or combination of antibiotics with fixed concentrations of said compounds (4 or 8 μg/mL) were determined by the broth microdilution method according to the Clinical Laboratory Standards Institute (CLSI-M7-A7). Briefly, compounds alone according to the invention were prepared in DMSO and spotted (2 μL each) on sterile polystyrene plates (Corning, 3788). Combinations of compounds and antibiotics dilutions were prepared in DMSO and spotted (1 μL each) on sterile polystyrene plates (Corning, 3788). Log phase bacterial suspensions were adjusted to a final density of 5·10^5 CFU/mL in cation-adjusted Mueller-Hinton broth (ca-MHB; Becton-Dickinson and Company) and added to each well (98 μL). Assays including Fosfomycin were supplemented with 25 μg/ml of Glucose-6-phosphate. Microplates were incubated for 16-20 h at 35° C. in ambient air. The MIC of the compounds was defined as the lowest concentration of said compounds that prevented bacterial growth as read by visual inspection. The MIC of ATB at each compound concentration was defined as the lowest concentration of ATB that prevented bacterial growth as read by visual inspection.

ABA 107292 = test system: ABA 107292
Protocol: as §1

ABA UFR156 = test system: ABA UFR156
Protocol: as §1

ABA UFR154 = test system: ABA UFR154
Protocol: as §1

ABA UFR155 = test system: ABA UFR155
Protocol: as §1

ABA UFR151 = test system: ABA UFR151
Protocol: as §1

ABA UFR159 = test system: ABA UFR159
Protocol: as §1

## CC1(C)[C@H](C(=O)O)N2C(=O)C[C@H]2S1(=O)=O [SUL]
ABA UFR157; antibiotic alone
  MIC ATB alone: 64 µg/mL
ABA UFR157; with Example 1 @8 μg/ml
  MIC ATB combined with Example 1 @8 μg/ml: 2 µg/mL
ABA UFR157; with Example 3 @8 μg/ml
  MIC ATB combined with Example 3 @8 μg/ml: 0.5 µg/mL
ABA UFR157; with Example 6 @8 μg/ml
  MIC ATB combined with Example 6 @8 μg/ml: <0.25 µg/mL
ABA UFR157; with Example 9 @4 μg/ml
  MIC ATB combined with Example 9 @4 μg/ml: 1 µg/mL
ABA UFR157; with Example 10 @8 μg/ml
  MIC ATB combined with Example 10 @8 μg/ml: 1 µg/mL
ABA UFR157; with Example 11 @8 μg/ml
  MIC ATB combined with Example 11 @8 μg/ml: 0.5 µg/mL
ABA UFR157; with Example 12 @8 μg/ml
  MIC ATB combined with Example 12 @8 μg/ml: 0.5 µg/mL
ABA UFR157; with Example 15 @4 μg/ml
  MIC ATB combined with Example 15 @4 μg/ml: 1 µg/mL
ABA 107292; antibiotic alone
  MIC ATB alone: 64 µg/mL
ABA 107292; with Example 1 @8 μg/ml
  MIC ATB combined with Example 1 @8 μg/ml: 4 µg/mL
ABA 107292; with Example 3 @8 μg/ml
  MIC ATB combined with Example 3 @8 μg/ml: 2 µg/mL
ABA 107292; with Example 6 @8 μg/ml
  MIC ATB combined with Example 6 @8 μg/ml: 8 µg/mL
ABA 107292; with Example 9 @4 μg/ml
  MIC ATB combined with Example 9 @4 μg/ml: 8 µg/mL
ABA 107292; with Example 10 @8 μg/ml
  MIC ATB combined with Example 10 @8 μg/ml: 4 µg/mL
ABA 107292; with Example 11 @8 μg/ml
  MIC ATB combined with Example 11 @8 μg/ml: 32 µg/mL
ABA 107292; with Example 12 @8 μg/ml
  MIC ATB combined with Example 12 @8 μg/ml: 2 µg/mL
ABA 107292; with Example 15 @4 μg/ml
  MIC ATB combined with Example 15 @4 μg/ml: 4 µg/mL
ABA UFR156; antibiotic alone
  MIC ATB alone: 64 µg/mL
ABA UFR156; with Example 1 @8 μg/ml
  MIC ATB combined with Example 1 @8 μg/ml: 16 µg/mL
ABA UFR156; with Example 3 @8 μg/ml
  MIC ATB combined with Example 3 @8 μg/ml: 2 µg/mL
ABA UFR156; with Example 6 @8 μg/ml
  MIC ATB combined with Example 6 @8 μg/ml: 4 µg/mL
ABA UFR156; with Example 9 @4 μg/ml
  MIC ATB combined with Example 9 @4 μg/ml: 16 µg/mL
ABA UFR156; with Example 10 @8 μg/ml
  MIC ATB combined with Example 10 @8 μg/ml: 1 µg/mL
ABA UFR156; with Example 11 @8 μg/ml
  MIC ATB combined with Example 11 @8 μg/ml: 8 µg/mL
ABA UFR156; with Example 12 @8 μg/ml
  MIC ATB combined with Example 12 @8 μg/ml: 4 µg/mL
ABA UFR156; with Example 15 @4 μg/ml
  MIC ATB combined with Example 15 @4 μg/ml: 8 µg/mL
ABA UFR154; antibiotic alone
  MIC ATB alone: 8 µg/mL
ABA UFR154; with Example 1 @8 μg/ml
  MIC ATB combined with Example 1 @8 μg/ml: 1 µg/mL
ABA UFR154; with Example 3 @8 μg/ml
  MIC ATB combined with Example 3 @8 μg/ml: 0.5 µg/mL
ABA UFR154; with Example 6 @8 μg/ml
  MIC ATB combined with Example 6 @8 μg/ml: <=0.25 μg/mL
ABA UFR154; with Example 9 @4 μg/ml
  MIC ATB combined with Example 9 @4 μg/ml: 0.5 µg/mL
ABA UFR154; with Example 10 @8 μg/ml
  MIC ATB combined with Example 10 @8 μg/ml: <=0.25 μg/mL
ABA UFR154; with Example 11 @8 μg/ml
  MIC ATB combined with Example 11 @8 μg/ml: <=0.25 μg/mL
ABA UFR154; with Example 12 @8 μg/ml
  MIC ATB combined with Example 12 @8 μg/ml: <=0.25 μg/mL
ABA UFR154; with Example 15 @4 μg/ml
  MIC ATB combined with Example 15 @4 μg/ml: 0.5 µg/mL
ABA UFR155; antibiotic alone
  MIC ATB alone: 16 µg/mL
ABA UFR155; with Example 1 @8 μg/ml
  MIC ATB combined with Example 1 @8 μg/ml: 4 µg/mL
ABA UFR155; with Example 3 @8 μg/ml
  MIC ATB combined with Example 3 @8 μg/ml: 1 µg/mL
ABA UFR155; with Example 6 @8 μg/ml
  MIC ATB combined with Example 6 @8 μg/ml: 2 µg/mL
ABA UFR155; with Example 9 @4 μg/ml
  MIC ATB combined with Example 9 @4 μg/ml: 8 µg/mL
ABA UFR155; with Example 10 @8 μg/ml
  MIC ATB combined with Example 10 @8 μg/ml: 2 µg/mL
ABA UFR155; with Example 11 @8 μg/ml
  MIC ATB combined with Example 11 @8 μg/ml: 4 µg/mL
ABA UFR155; with Example 12 @8 μg/ml
  MIC ATB combined with Example 12 @8 μg/ml: 2 µg/mL
ABA UFR155; with Example 15 @4 μg/ml
  MIC ATB combined with Example 15 @4 μg/ml: 8 µg/mL
ABA UFR151; antibiotic alone
  MIC ATB alone: 2 µg/mL
ABA UFR151; with Example 1 @8 μg/ml
  MIC ATB combined with Example 1 @8 μg/ml: 0.5 µg/mL
ABA UFR151; with Example 3 @8 μg/ml
  MIC ATB combined with Example 3 @8 μg/ml: <=0.25 μg/mL
ABA UFR151; with Example 6 @8 μg/ml
  MIC ATB combined with Example 6 @8 μg/ml: <0.25 µg/mL
ABA UFR151; with Example 9 @4 μg/ml
  MIC ATB combined with Example 9 @4 μg/ml: 0.5 µg/mL
ABA UFR151; with Example 10 @8 μg/ml
  MIC ATB combined with Example 10 @8 μg/ml: <=0.25 μg/mL
ABA UFR151; with Example 11 @8 μg/ml
  MIC ATB combined with Example 11 @8 μg/ml: <=0.25 μg/mL
ABA UFR151; with Example 12 @8 μg/ml
  MIC ATB combined with Example 12 @8 μg/ml: <=0.25 μg/mL
ABA UFR151; with Example 15 @4 μg/ml
  MIC ATB combined with Example 15 @4 μg/ml: <=0.25 μg/mL
ABA UFR159; antibiotic alone
  MIC ATB alone: 256 µg/mL
ABA UFR159; with Example 1 @8 μg/ml
  MIC ATB combined with Example 1 @8 μg/ml: 128 µg/mL
ABA UFR159; with Example 3 @8 μg/ml
  MIC ATB combined with Example 3 @8 μg/ml: 128 µg/mL
ABA UFR159; with Example 6 @8 μg/ml
  MIC ATB combined with Example 6 @8 μg/ml: 128 µg/mL

Source: US20200024278A1, “COMPOSITION COMPRISING ANTIBIOTIC COMPOUND AND AN HETEROCYCLIC COMPOUND AND THEIR USE IN PREVENTING OR TREATING BACTERIAL INFECTIONS” (MUTABILIS, priority 2016, published 2020)
